From patent publication US10294202B2, “Pyrrolidinones as herbicides” (FMC Corporation, priority 2013, dated 2019)

Legend:
barnyardgrass [1] = assay: Test A pre-/postemergence herbicide test; format: in vivo, Echinochloa crus-galli
How it was run: (§1)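 Visual injury ratings, 0 = no effect, 100 = complete control, taken ~10 days after treatment against untreated greenhouse controls. Preemergence: directed soil spray onto seeded loam/sand pots. Postemergence: spray onto plants at one- to two-leaf stage, 2–10 cm tall.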

velvetleaf = assay: Test C pre-/postemergence herbicide test; format: in vivo, Abutilon theophrasti; details: Preemergence; for Plant response rating (scale of 0 to 100), Velvetleaf: 250 g ai/ha
How it was run: (§2)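 Pre- and postemergence greenhouse screen. Preemergence treatment went onto freshly planted seeds in loam–sand soil; postemergence treatment went onto plants 2 to 18 cm tall at the 1- to 4-leaf stage in sphagnum peat/vermiculite medium. Scoring at 13 to 15 days used a 0–100 control scale.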

waterhemp = assay: Test C pre-/postemergence herbicide test; format: in vivo, Amaranthus rudis; details: Preemergence; for Plant response rating (scale of 0 to 100), Waterhemp: 250 g ai/ha
How it was run: as §2

giant foxtail = assay: Test A pre-/postemergence herbicide test; format: in vivo, Setaria faberii
How it was run: as §1

foxtail, giant = assay: Test C pre-/postemergence herbicide test; format: in vivo, Setaria faberii; details: Preemergence; for Plant response rating (scale of 0 to 100), Foxtail, Giant: 250 g ai/ha
How it was run: as §2

pigweed = assay: Test A pre-/postemergence herbicide test; format: in vivo, Amaranthus retroflexus
How it was run: as §1

lambsquarters = assay: Test C pre-/postemergence herbicide test; format: in vivo, Chenopodium album; details: Preemergence; for Plant response rating (scale of 0 to 100), Lambsquarters: 250 g ai/ha
How it was run: as §2

crabgrass, large = assay: Test C pre-/postemergence herbicide test; format: in vivo, Digitaria sanguinalis; details: Preemergence; for Plant response rating (scale of 0 to 100), Crabgrass, Large: 250 g ai/ha
How it was run: as §2

galium = assay: Test C pre-/postemergence herbicide test; format: in vivo, Galium aparine; details: Preemergence; for Plant response rating (scale of 0 to 100), Galium: 250 g ai/ha
How it was run: as §2

morningglory = assay: Test C pre-/postemergence herbicide test; format: in vivo, Ipomoea coccinea; details: Preemergence; for Plant response rating (scale of 0 to 100), Morningglory: 250 g ai/ha
How it was run: as §2

barnyardgrass [2] = assay: Test C pre-/postemergence herbicide test; format: in vivo, Echinochloa crus-galli; details: Preemergence; for Barnyardgrass plant response rating: 31 g ai/ha, scale 0 to 100, 0 is no effect and 100 is complete control; for Plant response rating (scale of 0 to 100; 0 is no effect, 100 is complete control), Barnyardgrass: 250 g ai/ha
How it was run: as §2

[3] = Postemergence, 125 g ai/ha, 0 to 100 scale, 0 is no effect, 100 is complete control
[4] = Postemergence, 500 g ai/ha, 0 to 100 scale (0 no effect, 100 complete control)
[5] = Preemergence, 125 g ai/ha, 0 to 100 scale where 0 is no effect and 100 is complete control
[6] = preemergence, 500 g ai/ha, 0 to 100 scale, 0 is no effect and 100 is complete control
[7] = 31 g ai/ha, scale 0 to 100, 0 is no effect and 100 is complete control
[8] = 62 g ai/ha, scale 0 to 100 (0 no effect, 100 complete control)
[9] = 125 g ai/ha, scale 0 to 100 (0 no effect, 100 complete control)
[10] = 125 g ai/ha, visual rating, 0 to 100 scale, 0 no effect, 100 complete control, approximately 10 days, preemergence

## O=C1NCC(c2ccc(C(F)(F)F)c(F)c2)C1C(=O)Nc1ccccc1F (racemic) [Compound 246]
Barnyardgrass [1]; [3]
  Plant response rating, Barnyardgrass: 70
Barnyardgrass [1]; [4]
  Plant response rating, Barnyardgrass: 70
Barnyardgrass [1]; [5]
  Plant response rating, Barnyardgrass: 80
Barnyardgrass [1]; [6]
  Plant response rating, Barnyardgrass: 90
velvetleaf; [7]
  Velvetleaf plant response rating: 0
velvetleaf; [8]
  Velvetleaf plant response rating: 0
velvetleaf; [9]
  Plant response rating, Velvetleaf: 0
velvetleaf
  Plant response rating (scale of 0 to 100), Velvetleaf: 0
waterhemp; [7]
  Waterhemp plant response rating: 100
waterhemp; [8]
  Waterhemp plant response rating: 98
waterhemp; [9]
  Plant response rating, Waterhemp: 90
waterhemp
  Plant response rating (scale of 0 to 100), Waterhemp: 90
Giant foxtail; [3]
  Plant response rating, Foxtail, Giant: 40
Giant foxtail; [4]
  Plant response rating, Foxtail, Giant: 80
Giant foxtail; [5]
  Plant response rating, Foxtail, Giant: 80
Giant foxtail; [6]
  Plant response rating, Foxtail, Giant: 90
foxtail, giant; [7]
  Foxtail, Giant plant response rating: 85
foxtail, giant; [8]
  Foxtail, Giant plant response rating: 90
foxtail, giant; [9]
  Plant response rating, Foxtail, Giant: 95
foxtail, giant
  Plant response rating (scale of 0 to 100), Foxtail, Giant: 95
pigweed; [3]
  Plant response rating, Pigweed: 0
pigweed; [4]
  Plant response rating, Pigweed: 0
pigweed; [5]
  Plant response rating, Pigweed: 0
pigweed; [6]
  Plant response rating, Pigweed: 0
lambsquarters; [7]
  Lambsquarters plant response rating: 65
lambsquarters; [8]
  Lambsquarters plant response rating: 65
lambsquarters; [9]
  Plant response rating, Lambsquarters: 80
lambsquarters
  Plant response rating (scale of 0 to 100), Lambsquarters: 90
crabgrass, large; [7]
  Crabgrass, Large plant response rating: 95
crabgrass, large; [8]
  Crabgrass, Large plant response rating: 95
crabgrass, large; [9]
  Plant response rating, Crabgrass, Large: 95
crabgrass, large
  Plant response rating (scale of 0 to 100), Crabgrass, Large: 98
galium; [7]
  Galium plant response rating: 10
galium; [8]
  Galium plant response rating: 90
galium; [9]
  Plant response rating, Galium: 90
galium
  Plant response rating (scale of 0 to 100), Galium: 90
morningglory; [7]
  Morningglory plant response rating: 5
morningglory; [8]
  Morningglory plant response rating: 5
morningglory; [9]
  Plant response rating, Morningglory: 10
morningglory
  Plant response rating (scale of 0 to 100), Morningglory: 5
Barnyardgrass [2]
  Barnyardgrass plant response rating: 20
  Plant response rating (scale of 0 to 100; 0 is no effect, 100 is complete control), Barnyardgrass: 90
Barnyardgrass [2]; 62 g ai/ha, scale 0 to 100
  Plant response rating, Barnyardgrass: 75
Barnyardgrass [2]; [9]
  Plant response rating, Barnyardgrass: 75

## O=C1NCC(c2cccc(C(F)F)c2)C1C(=O)Nc1cccc(F)c1F (racemic) [Compound 211]
Barnyardgrass [1]; [10]
  Plant response rating, Barnyardgrass: 80
Barnyardgrass [1]; [3]
  Plant response rating, Barnyardgrass: 90
Barnyardgrass [1]; Postemergence, 500 g ai/ha
  Barnyardgrass plant response rating (0 to 100 scale, 0 is no effect, 100 is complete control): 90
Barnyardgrass [1]; [6]
  Plant response rating, Barnyardgrass: 90
velvetleaf; [7]
  Velvetleaf plant response rating: 0
velvetleaf; [8]
  Velvetleaf plant response rating: 10
velvetleaf; [9]
  Plant response rating, Velvetleaf: 30
velvetleaf
  Plant response rating (scale of 0 to 100), Velvetleaf: 35
waterhemp; [7]
  Waterhemp plant response rating: 85
waterhemp; [8]
  Waterhemp plant response rating: 75
waterhemp; [9]
  Plant response rating, Waterhemp: 100
waterhemp
  Plant response rating (scale of 0 to 100), Waterhemp: 90
Giant foxtail; [10]
  Plant response rating, Foxtail, Giant: 80
Giant foxtail; [3]
  Plant response rating, Foxtail, Giant: 70
Giant foxtail; Postemergence, 500 g ai/ha
  Foxtail, Giant plant response rating (0 to 100 scale, 0 is no effect, 100 is complete control): 90
Giant foxtail; [6]
  Plant response rating, Foxtail, Giant: 90
foxtail, giant; [7]
  Foxtail, Giant plant response rating: 0
foxtail, giant; [8]
  Foxtail, Giant plant response rating: 70
foxtail, giant; [9]
  Plant response rating, Foxtail, Giant: 90
foxtail, giant
  Plant response rating (scale of 0 to 100), Foxtail, Giant: 95
pigweed; [10]
  Plant response rating, Pigweed: 20
pigweed; [3]
  Plant response rating, Pigweed: 0
pigweed; Postemergence, 500 g ai/ha
  Pigweed plant response rating (0 to 100 scale, 0 is no effect, 100 is complete control): 50
pigweed; [6]
  Plant response rating, Pigweed: 70
lambsquarters; [7]
  Lambsquarters plant response rating: 100
lambsquarters; [8]
  Lambsquarters plant response rating: 85
lambsquarters; [9]
  Plant response rating, Lambsquarters: 100
lambsquarters
  Plant response rating (scale of 0 to 100), Lambsquarters: 100
crabgrass, large; [7]
  Crabgrass, Large plant response rating: 100
crabgrass, large; [8]
  Crabgrass, Large plant response rating: 95
crabgrass, large; [9]
  Plant response rating, Crabgrass, Large: 95
crabgrass, large
  Plant response rating (scale of 0 to 100), Crabgrass, Large: 95
galium; [8]
  Galium plant response rating: 5
galium; [9]
  Plant response rating, Galium: 85
galium
  Plant response rating (scale of 0 to 100), Galium: 100
morningglory; [7]
  Morningglory plant response rating: 0
morningglory; [8]
  Morningglory plant response rating: 0
morningglory; [9]
  Plant response rating, Morningglory: 0
morningglory
  Plant response rating (scale of 0 to 100), Morningglory: 0
Barnyardgrass [2]
  Barnyardgrass plant response rating: 30
  Plant response rating (scale of 0 to 100; 0 is no effect, 100 is complete control), Barnyardgrass: 90
Barnyardgrass [2]; 62 g ai/ha, scale 0 to 100
  Plant response rating, Barnyardgrass: 65
Barnyardgrass [2]; [9]
  Plant response rating, Barnyardgrass: 85

## O=C1NCC(c2cccc(C(F)(F)F)c2)C1C(=O)Nc1ccccc1Cl (racemic) [Compound 189]
Barnyardgrass [1]; [10]
  Plant response rating, Barnyardgrass: 80
Barnyardgrass [1]; [3]
  Plant response rating, Barnyardgrass: 90
Barnyardgrass [1]; Postemergence, 500 g ai/ha
  Barnyardgrass plant response rating (0 to 100 scale, 0 is no effect, 100 is complete control): 90
Barnyardgrass [1]; [6]
  Plant response rating, Barnyardgrass: 90
velvetleaf; [7]
  Velvetleaf plant response rating: 0
velvetleaf; [8]
  Velvetleaf plant response rating: 0
velvetleaf; [9]
  Plant response rating, Velvetleaf: 0
velvetleaf; 16 g ai/ha, scale 0 to 100
  Plant response rating, Velvetleaf: 0
waterhemp; [7]
  Waterhemp plant response rating: 0
waterhemp; [8]
  Waterhemp plant response rating: 5
waterhemp; [9]
  Plant response rating, Waterhemp: 0
waterhemp; 16 g ai/ha, scale 0 to 100
  Plant response rating, Waterhemp: 0
Giant foxtail; [10]
  Plant response rating, Foxtail, Giant: 90
Giant foxtail; [3]
  Plant response rating, Foxtail, Giant: 70
Giant foxtail; Postemergence, 500 g ai/ha
  Foxtail, Giant plant response rating (0 to 100 scale, 0 is no effect, 100 is complete control): 90
Giant foxtail; [6]
  Plant response rating, Foxtail, Giant: 90
foxtail, giant; [7]
  Foxtail, Giant plant response rating: 80
foxtail, giant; [8]
  Foxtail, Giant plant response rating: 90
foxtail, giant; [9]
  Plant response rating, Foxtail, Giant: 95
foxtail, giant; 16 g ai/ha, scale 0 to 100
  Plant response rating, Foxtail, Giant: 85
pigweed; [10]
  Plant response rating, Pigweed: 0
pigweed; [3]
  Plant response rating, Pigweed: 0
pigweed; Postemergence, 500 g ai/ha
  Pigweed plant response rating (0 to 100 scale, 0 is no effect, 100 is complete control): 0
pigweed; [6]
  Plant response rating, Pigweed: 0
lambsquarters; [7]
  Lambsquarters plant response rating: 0
lambsquarters; [8]
  Lambsquarters plant response rating: 0
lambsquarters; [9]
  Plant response rating, Lambsquarters: 5
lambsquarters; 16 g ai/ha, scale 0 to 100
  Plant response rating, Lambsquarters: 0
crabgrass, large; [7]
  Crabgrass, Large plant response rating: 95
crabgrass, large; [8]
  Crabgrass, Large plant response rating: 95
crabgrass, large; [9]
  Plant response rating, Crabgrass, Large: 98
crabgrass, large; 16 g ai/ha, scale 0 to 100
  Plant response rating, Crabgrass, Large: 90
galium; [7]
  Galium plant response rating: 0
galium; [8]
  Galium plant response rating: 0
galium; [9]
  Plant response rating, Galium: 80
galium; 16 g ai/ha, scale 0 to 100
  Plant response rating, Galium: 0
morningglory; [7]
  Morningglory plant response rating: 0
morningglory; [8]
  Morningglory plant response rating: 0
morningglory; [9]
  Plant response rating, Morningglory: 0
morningglory; 16 g ai/ha, scale 0 to 100
  Plant response rating, Morningglory: 0
Barnyardgrass [2]
  Barnyardgrass plant response rating: 85
Barnyardgrass [2]; 62 g ai/ha, scale 0 to 100
  Plant response rating, Barnyardgrass: 90
Barnyardgrass [2]; [9]
  Plant response rating, Barnyardgrass: 90
Barnyardgrass [2]; 16 g ai/ha, scale 0 to 100
  Plant response rating, Barnyardgrass: 45
